US5302526A, “Recombinant DNA enclosed amphiphilic leader sequences for the production and purification of fusion proteins” (Creative BioMolecules, Inc., priority 1993, dated 1994)
Where two headings read alike, the source gives them in different places. Ends that are not written are not given here.

Assay: HPLC partitioning of synthetic helix dimers between aqueous mobile phase and nonpolar C-18 stationary phase as a function of pH
Assay type: physicochemical
Experimental: To determine whether the properties of the synthetic helices corresponded to their expected properties, each was tested on an HPLC column using a nonpolar (C-18) stationary phase. A sample of synthetic peptide solution was then injected, and the elution time (time to emerge from the bottom of the column) measured. The void time for the column was measured by injecting a small charged molecule such as citrate or acetate. The fraction of the sample solubilized in the aqueous, mobile phase (versus that bound to the hydrophobic, immobile phase) is determined by the void time divided by the sample elution time. A sample emerging in the void time is completely soluble in the mobile phase, whereas if it emerges in two void times it is half solubilized in the mobile phase and half bound to the stationary phase. By this procedure the affinity of each of the synthetic peptides for the aqueous, mobile phase, relative to the hydrophobic, stationary phase, could be measured as a function of pH. The HPLC column was run isocratically (constant eluent) using one of several different buffer systems. […] For that reason a value of 13% was used for all the buffer systems in that at that concentration the elution time for the peptides was determined to be on the order of 2 to 20 times the void time. […] The column was allowed to equilibrate as judged by 214 nm absorbance baseline stability. […]

Sequence | fraction of the helix partitioned into the aqueous mobile phase (partition coefficient) as a function of pH | fraction of the helix partitioned into the aqueous mobile phase (partition coefficient) as a function of pH (C-18 HPLC, isocratic, 13% acetonitrile, trend with increasing pH)
AKNLNEAAKNLNEA [Helix P-72, (Ala--Lys--Asn--Leu--Asn--Glu--Ala)2] | as the pH increased the peptide partitioned increasingly into the hydrophobic (stationary) phase | –
AHNLNEAAHNLNEA [Helix P-81, (Ala--His--Asn--Leu--Asn--Glu--Ala)2] | – | fraction of the helix partitioning into the mobile phase increases as pH increases
